This is an account of results in patent US4204065A, “Soft quaternary surface active agents and method of using same” (Interx Research Corporation, priority 1978, dated 1980).

Data set [1] deals with mouse. As to conditions: cited from earlier work.
For data set [2], the system named is mouse. As to conditions: cited from earlier work. The source holds these as a separate data set.
The subject of data set [3] is rat. As to conditions: cited from earlier work.
Data set [4] concerns S. aureus. Nature of the data set: microbe, parasite or virus in culture. In kind it is cell-based. As to conditions: Staphylococcus aureus, pH 7, read-out: Minimal inhibitory concentration (MIC), S. aureus.
In data set [5] the test system is B. subtilis. Nature of the data set: Minimal inhibitory concentration (MIC), B. subtilis. In kind it is cell-based. As to conditions: Bacillus subtilis; 0.1 M NaH2PO4, pH 7.0.
Data set [6] concerns S. typhimirum. Nature of the data set: Minimal inhibitory concentration (MIC), S. typhimirum. The data set is classed as cell-based. As to conditions: 0.1 M NaH2PO4, pH 7.0.
Data set [7] relates to P. aeruginosa. Nature of the data set: Minimal inhibitory concentration (MIC), P. aeruginosa. The data set is classed as cell-based. As to conditions: Pseudomonas aeruginosa; 0.1 M NaH2PO4, pH 7.0.
For data set [8], the system named is S. pyogenes. In words: Minimal inhibitory concentration (MIC), S. pyogenes. In kind it is cell-based. As to conditions: Streptococcus pyogenes; 0.1 M NaH2PO4, pH 7.0.
Data set [9] in a line: Saturated solubility (footnote of MIC table). As to conditions: 0.1 M NaH2PO4, pH 7.0; footnote b; read-out: Approximately the saturated solubility. The data set is classed as physicochemical. An excerpt: ^b Approximately the saturated solubility.
Data set [10] relates to MCR-ICR White Swiss Male Mice. As to conditions: mouse; for Mortality 24 hrs. / Mortality 7 days: in vivo.
Data set [11] relates to White Male Mice MCR-ICR. As to conditions: oral; for Mortality 24 hrs. / Mortality 7 days: deaths of 10 animals per dose.
Data set [12] in a line: in vivo. As to conditions: mouse, iv.
Data set [13] is described as follows: in vivo. As to conditions: mouse, po.

Entries after “also recorded” stand apart in the source; their conditions may differ. Where two headings read alike, the source gives them in different places.

Turning to `CCCCCCCCCCCCCCCC[n+]1ccccc1` [Compound 1, cetylpyridinium chloride], the LD50 oral in data set [1] is listed as 108 mg/kg. For the same compound, in [2], the “LD50 IP” value is 10 mg/kg. Moreover, the “LD50 IV” value in [3] was 30 mg/kg.

With `CCCCCCCC(=O)OC[n+]1ccccc1` [Compound 2, n-Octanoyloxymethylpyridinium chloride], the MIC was 529 µg/mL in data set [4]; 529 µg/mL in [5]; 1060 µg/mL in [6]; 1060 µg/mL in data set [7]; 529 µg/mL in data set [8].

With `CCCCCCCCCCCC(=O)OC[n+]1ccccc1` [Compound 3, n-Dodecanoyloxymethylpyridinium chloride], the MIC was 8.9 µg/mL in data set [4]; 143 µg/mL in [5]; 35.8 µg/mL in data set [6]; < 2.2 µg/mL in data set [7]; 71.5 µg/mL in data set [8].

For `CCCCCCCCCCCCCC(=O)OC[n+]1ccccc1` [Compound 4, n-Tetradecanoyloxymethylpyridinium chloride], the MIC is 8.1 µg/mL in data set [4]; 8.3 µg/mL in [5]; 133 µg/mL in [6]; > 1060 µg/mL in data set [7]; 4.2 µg/mL in [8].

For the compound `CCCCCCCCCCCCCCCC(=O)OC[n+]1ccccc1` [Compound 5, n-Hexadecanoyloxymethylpyridinium chloride], the MIC in data set [4] was determined as 16.7 µg/mL; in data set [5], 1070 µg/mL; in data set [6], 1070 µg/mL; in data set [7], 1070 µg/mL; in data set [8] it was 268 µg/mL.

As to `CCCCCCCCCCCC(=O)OC[n+]1ccn(C)c1` [Compound 6], the MIC in data set [4] came out at 4.1 µg/mL; in data set [5] it was 16.3 µg/mL; in data set [6] it was 65.3 µg/mL; in data set [7], 261 µg/mL; in data set [8], 2 µg/mL.

Consider `CCCCCCCCCCCCCC(=O)OC[n+]1ccn(C)c1` [Compound 7], for which the MIC in [4] was < 2.2 µg/mL; in data set [5], 4.4 µg/mL; in data set [6], 69.7 µg/mL; in data set [7], > 1120 µg/mL; in data set [8] it was > 2.2 µg/mL.

By solubility is commonly meant how much of the substance goes into solution per volume. Take `CCCCCCCCCCCCCCCC(=O)OC[n+]1ccn(C)c1` [Compound 8]: the MIC in data set [4] was 1.3 µg/mL; in data set [5], > 42.4 µg/mL; in data set [6], > 42.4 µg/mL; in [7], > 42.4 µg/mL; in [8] it was > 42.4 µg/mL. Also, in data set [9], the solubility was ~42.4 µg/mL.

Broadly, the LD50 is the dose at which mortality reaches 50%. A low value points to greater toxicity. Take `CCCCCCCCCCCC(=O)OC[n+]1ccn(C)c1` [IRx-1229]: the “Symptoms: time of death” value in [10] (IV) is “Death either occurred immediately after injection or several day later, never between 5 minutes and 24 hours after injection”. Further, the “Symptoms: cause and signs of immediate death” value in [10] (IV, death immediately following injection) is given as “circulatory collapse because of too large an injection or precipitation of the compound in the bloodstream; also recorded: death was preceded by convulsions”. The “Mortality 24 hrs.” value in data set [10] (133 mg/kg) is reported as 1/3; in data set [10] (iv, 35.09 mg/kg) it was 0/5; in [10] (iv, 42.5 mg/kg), 0/5; in data set [10] (iv, 81.25 mg/kg) it was 1/2; in [10] (iv, 87.73 mg/kg), 2/4; in [10] (iv, 102.47 mg/kg), 0/8. The “Mortality 24 hrs.” value in data set [10] (iv, 199.5 mg/kg) is 1/1; in [11] (1.68 g/kg) it was 0; in data set [11] (3.35 g/kg), 2; in [11] (5.00 g/kg), 7. Moreover, the “Mortality 7 days” value in data set [10] (133 mg/kg) is given as 1/3; in data set [10] (iv, 35.09 mg/kg) it was 0/5; in data set [10] (iv, 42.5 mg/kg), 0/5; in [10] (iv, 81.25 mg/kg), 1/2; in data set [10] (iv, 87.73 mg/kg), 2/4; in data set [10] (iv, 102.47 mg/kg) it was 1/8. Also, the “Mortality 7 days” value in data set [10] (iv, 199.5 mg/kg) is listed as 1/1; in data set [11] (1.68 g/kg), 1; in data set [11] (3.35 g/kg) it was 3; in [11] (5.00 g/kg), 7. Further, the “Deaths per day, Day 1” value in data set [11] (1.68 g/kg) amounted to 0; in [11] (3.35 g/kg), 2; in data set [11] (5.00 g/kg), 7. Moreover, in data set [11] (1.68 g/kg), the “Deaths per day, Day 2” value came out at 1. Also, the “Deaths per day, Day 3” value in [11] (3.35 g/kg) is 1. Also, the 50% lethal dose (LD50) at 24 h in [12] is 100 to 133 mg/kg; in data set [13] it was 4300 mg/kg. In data set [13], this compound returned an LD50 at 168 h of 4110 mg/kg.
